In US8389558B2, “Bendamustine amphiphilic anionic compositions” (Supratek Pharma Inc., priority 2009, dated 2013):
Where a name gives a salt, the structure may show the parent alone.

How the values were obtained:
[1] = Bendamustine chemical stability in formulations with amphiphilic anionic agents and phosphate buffer (HPLC, first order kinetics); assay type: physicochemical; settings: 0.6 mg/mL bendamustine, 1% (w/v) aqueous amphiphilic anionic agent, 6 mM phosphate buffer pH 7.2, 25° C.; read-out: decomposition half time (T½) of bendamustine
Procedure: Formulations were prepared by dissolving bendamustine hydrochloride in pre-equilibrated 1% (w/v) aqueous solution of amphiphilic anionic agent containing 6 mM phosphate buffer, pH 7.2. The final concentration of bendamustine was 0.6 mg/mL. The formulations were incubated at 25° C., and were periodically analyzed by HPLC as follows. 10 μL samples were separated using Waters SymmetryShield RP-18 3.5 μm column (4.6×50 mm) at the flow of 1.5 mL/min of acetonitrile-water gradient containing 0.1% TFA. Peak detection has been performed with means of UV absorption detection at 260 nm. The area of the peak of Bendamustine was used to evaluate the rate of drug decomposition in the first order kinetics model.

[2] = 23° C.; cited from earlier work

SMILES	half-life at 0.6 mg/mL [1] [min]	time for which stable in saline solution [2] [h]
Cn1c(CCCC(=O)O)nc2cc(N(CCCl)CCCl)ccc21 [Control (phosphate buffer), bendamustine hydrochloride]	44	–
Cn1c(CCCC(=O)O)nc2cc(N(CCCl)CCCl)ccc21 [bendamustine hydrochloride]	–	9
